Assay results taken from PMC12223841, “Compounds Isolated from Paepalanthus spp. (Eriocaulaceae) and Their Evaluation in Antimicrobial, Cytotoxic, and Antiviral Assays” (ACS Omega, 2025).
pIC50: −log10 of the molar value. Converted amounts (≈) assume the structure as drawn.

What was measured:
[1] = test system: HCT-116 (human colon cancer); assay: MTT growth-inhibition assay, HCT-116; type: cell-based; details: 72 h; for inhibition at 50 µM: read-out: Inhibition percentage (growth), HCT 116
[2] = test system: MCF-7 (human breast cancer); assay: MTT growth-inhibition assay, MCF-7; type: cell-based; details: 72 h; for inhibition at 50 µM: MCF7, 50 μM, read-out: Inhibition percentage (growth), MCF-7
[3] = test system: Staphylococcus aureus (NEWP0023); assay: Broth microdilution with TTC, S. aureus; type: cell-based; details: 24 h, 36 °C
[4] = test system: Escherichia coli (NEWP0022); assay: Broth microdilution with TTC, E. coli; type: cell-based; details: 24 h, 36 °C
in vitro = details: hamster

pIC50 ([1]; positive control, 95% confidence interval in brackets)	pIC50 ([2]; MCF7, positive control, 95% confidence interval in brackets)	MIC [3] [µg/mL]	MIC [4] [µg/mL]	Structure (SMILES)	inhibition at 50 µM [1] [%]	viability at 10 µM (in vitro) [%]	inhibition at 50 µM [2] [%]
6.74	5.94	–	–	COc1cccc2c1C(=O)c1c(O)c3c(c(O)c1C2=O)C[C@@](O)(C(=O)CO)C[C@@H]3O[C@H]1C[C@H](N)[C@H](O)[C@H](C)O1 [Doxorubicin, doxorubicin, reference compound]	–	–	–
–	–	≤ 0.5	≤ 0.5	CNC(C)C1CCC(N)C(OC2C(N)CC(N)C(OC3OCC(C)(O)C(NC)C3O)C2O)O1 (stereo not drawn) [gentamicin, reference compound]	–	–	–
–	–	≥ 500	≥ 250	COc1c(O)cc2oc(-c3ccc(O)cc3)c(O[C@@H]3O[C@H](CO)[C@@H](O)[C@H](O)[C@H]3O)c(=O)c2c1O [Compound 5, 6-Methoxykaempferol-3-O-β-glucopyranoside]	–	–	–

Second part, the compound before the results:

Structure (SMILES)	pIC50 ([1]; positive control, 95% confidence interval in brackets)	pIC50 ([2]; MCF7, positive control, 95% confidence interval in brackets)	MIC [3] [µg/mL]	MIC [4] [µg/mL]	inhibition at 50 µM [1] [%]	viability at 10 µM (in vitro) [%]	inhibition at 50 µM [2] [%]
COc1c(O)cc2oc(-c3ccc(O)cc3)c(OC3OC(COC(=O)C=Cc4ccc(O)cc4)C(O)C(O)C3O)c(=O)c2c1O [Compound 4, 6-Methoxykaempferol-3-O-β-D-6″-(p-coumaroyl)-glycopyranoside]	–	–	≥ 500	≥ 250	11.5	100	3.45
COc1c(O)cc2oc(-c3ccc(O)cc3)c(O)c(=O)c2c1O [Compound 1, 6-Methoxykaempferol]	–	–	250 (≈ 790 µM)	≥ 250	29.2	–	19.2
